PMC6112376, “Comprehensive Analyses and Prioritization of Tox21 10K Chemicals Affecting Mitochondrial Function by in-Depth Mechanistic Studies” (Environmental Health Perspectives, 2018)

Key:
[1] = molecular target: T1, mitochondrial respiratory chain complex II (Rattus norvegicus, UniProt P21913+Q641Z9+Q6PCT8+Q920L2); experiment: Respiratory chain complex II activity; format: biochemical; settings: tested up to 100μM
T1 construct: Submitochondrial particles were prepared by subjecting the intact rat mitochondria, isolated as described above, to three successive freeze–thaw cycles; from tissue; host or cells: rat liver mitochondria (submitochondrial particles)

[2] = tested on: rat primary hepatocytes
[3] = tested on: HepG2 cells; experiment: Intracellular ATP content (cell viability) assay; format: cell-based, human; settings: Homo sapiens, HepG2, 40 h
[4] = tested on: HepG2 cells; experiment: cells; settings: Homo sapiens, HepG2, 1 h
[5] = tested on: HepG2 cells; experiment: ROS-Glo hydrogen peroxide (ROS) assay; format: cell-based, human; settings: Homo sapiens, HepG2, 2 h, read-out: ROS (HepG2) EC50
[6] = tested on: mitochondrial respiratory chain complex V; format: biochemical, rat
[7] = tested on: mitochondrial respiratory chain complex III; format: biochemical, rat
[8] = tested on: Nrf2/ARE (ARE-bla HepG2 cells); experiment: ARE β-lactamase reporter gene assay; format: cell-based, human; settings: Homo sapiens, HepG2; 16 h incubation; mean±SD of three experiments; read-out: ARE (HepG2) EC50
[9] = tested on: isolated rat liver mitochondria; experiment: Oxygen consumption, Clark-type oxygen electrode; format: biochemical
[10] = tested on: mitochondrial respiratory chain complex I; format: biochemical, rat
[11] = tested on: mitochondrial respiratory chain complex IV; format: biochemical, rat
[12] = tested on: rat primary hepatocytes; experiment: MMP assay in rat primary hepatocytes; settings: Rattus norvegicus, Hepatocyte, 1 h, read-out: Rat hepatocytes IC50 (MMP)
[13] = tested on: HeLa cells expressing YFP-Parkin; experiment: Parkin translocation assay; format: cell-based, human
[14] = tested on: hNSC; experiment: MMP assay in human neural stem cells (hNSC); format: cell-based; settings: Homo sapiens, Neural stem cell, 1 h, read-out: hNSC IC50 (MMP)
[15] = tested on: p53 (p53-bla HCT-116 cells); experiment: p53 β-lactamase reporter gene assay; format: cell-based, human; settings: Homo sapiens; 16 h incubation; mean±SD of three experiments

T1 sequence (Q920L2 35-656): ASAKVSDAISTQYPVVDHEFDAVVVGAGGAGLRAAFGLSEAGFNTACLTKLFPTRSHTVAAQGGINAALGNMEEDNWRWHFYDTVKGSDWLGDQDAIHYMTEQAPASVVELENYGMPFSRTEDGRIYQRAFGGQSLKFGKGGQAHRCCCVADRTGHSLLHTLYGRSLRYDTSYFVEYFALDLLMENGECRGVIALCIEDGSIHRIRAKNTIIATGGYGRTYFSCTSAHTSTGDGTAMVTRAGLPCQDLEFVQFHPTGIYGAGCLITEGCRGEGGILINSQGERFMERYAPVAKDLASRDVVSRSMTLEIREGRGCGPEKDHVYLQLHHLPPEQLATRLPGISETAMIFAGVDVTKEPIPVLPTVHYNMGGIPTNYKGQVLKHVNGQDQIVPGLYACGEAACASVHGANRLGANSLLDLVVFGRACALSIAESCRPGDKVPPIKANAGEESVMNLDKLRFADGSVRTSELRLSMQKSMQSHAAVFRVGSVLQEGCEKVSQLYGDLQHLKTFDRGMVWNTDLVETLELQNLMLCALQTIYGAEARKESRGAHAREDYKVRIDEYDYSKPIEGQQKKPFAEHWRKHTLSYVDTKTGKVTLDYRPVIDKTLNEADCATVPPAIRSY
T1 sequence (P21913 31-282): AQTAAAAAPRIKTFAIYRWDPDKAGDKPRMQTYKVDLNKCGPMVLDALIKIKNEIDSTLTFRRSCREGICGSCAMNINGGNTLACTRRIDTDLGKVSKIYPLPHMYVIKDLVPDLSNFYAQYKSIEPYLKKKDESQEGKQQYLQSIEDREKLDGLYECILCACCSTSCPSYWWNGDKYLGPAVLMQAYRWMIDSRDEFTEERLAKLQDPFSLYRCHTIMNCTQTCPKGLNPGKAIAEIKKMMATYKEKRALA
T1 sequence (Q641Z9 1-169): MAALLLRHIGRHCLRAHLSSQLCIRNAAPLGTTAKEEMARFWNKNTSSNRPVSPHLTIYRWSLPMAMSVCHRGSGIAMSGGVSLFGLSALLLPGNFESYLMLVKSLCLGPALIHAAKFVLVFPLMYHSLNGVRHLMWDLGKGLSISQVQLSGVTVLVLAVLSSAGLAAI
T1 sequence (Q6PCT8 57-159): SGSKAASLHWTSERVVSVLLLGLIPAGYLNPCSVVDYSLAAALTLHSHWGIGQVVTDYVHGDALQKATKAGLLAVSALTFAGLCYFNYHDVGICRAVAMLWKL

CCCCCC[C@H]1C(=O)O[C@H](C)[C@H](NC(=O)c2cccc(NC=O)c2O)C(=O)O[C@@H](C)[C@@H]1OC(=O)CC(C)C [Antimycin A, reference compound]
Complex II % inhibition (activity call) [1]: Inactive
Rat hepatocytes (efficacy) (MMP) [2]: 2.65±1.08 ( −94.9±3.37 ) %
IC50 ([3]; read-out: ATP (HepG2, galactose) IC50): 50 nM
IC50 ([3]; read-out: ATP (HepG2, glucose) IC50): 20 nM
IC50 ([4]; read-out: HepG2 IC50 Galactose (MMP)): 250 nM
IC50 ([4]; read-out: HepG2 IC50 Glucose (MMP)): 2790 nM
EC50 [5]: 6830 nM
Complex V % inhibition (activity call) [6]: Inactive
inhibitory effect on Complex III at (concentration) [7]: 0.032 µM
Complex III % inhibition ([7]; at 0.032μM): 71.1±2.91 at 0.032μM %
EC50 [8]: 470 ± 420 nM
Potential Mechanism [9]: Inhibitor
effect on mitochondrial respiration (in words) [9]: significantly inhibited both glutamate/malate-driven respiration and succinate-driven respiration
I-ADP, % of control (O2 consumption rate) ([9]; 0.00128 µM): 101 (37.5) % of control
I-sub, % of control (O2 consumption rate) ([9]; 0.00128 µM): 104 (11.2) % of control
II-ADP, % of control (O2 consumption rate) ([9]; 0.00128 µM): 102 (64.0) % of control
II-sub, % of control (O2 consumption rate) ([9]; 0.00128 µM): 105 (19.5) % of control
I-ADP, % of control (O2 consumption rate) ([9]; 0.0064 µM): 90 (33.5) % of control
I-sub, % of control (O2 consumption rate) ([9]; 0.0064 µM): 93 (10.0) % of control
II-ADP, % of control (O2 consumption rate) ([9]; 0.0064 µM): 83 (52.2) % of control
II-sub, % of control (O2 consumption rate) ([9]; 0.0064 µM): 92 (17.1) % of control
I-ADP, % of control (O2 consumption rate) ([9]; 0.032 µM): 59 (22.1) % of control
I-sub, % of control (O2 consumption rate) ([9]; 0.032 µM): 86 (9.3) % of control
II-ADP, % of control (O2 consumption rate) ([9]; 0.032 µM): 39 (24.5) % of control
II-sub, % of control (O2 consumption rate) ([9]; 0.032 µM): 67 (12.4) % of control
I-ADP, % of control (O2 consumption rate) ([9]; 0.16 µM): 17 (6.4) % of control
I-sub, % of control (O2 consumption rate) ([9]; 0.16 µM): 53 (5.7) % of control
II-ADP, % of control (O2 consumption rate) ([9]; 0.16 µM): 10 (6.4) % of control
II-sub, % of control (O2 consumption rate) ([9]; 0.16 µM): 36 (6.7) % of control
I-ADP, % of control (O2 consumption rate) ([9]; 0.8 µM): 16 (6.1) % of control
I-sub, % of control (O2 consumption rate) ([9]; 0.8 µM): 63 (6.8) % of control
II-ADP, % of control (O2 consumption rate) ([9]; 0.8 µM): 10 (6.4) % of control
II-sub, % of control (O2 consumption rate) ([9]; 0.8 µM): 30 (5.6) % of control
I-ADP, % of control (O2 consumption rate) ([9]; 4 µM): 13 (4.8) % of control
I-sub, % of control (O2 consumption rate) ([9]; 4 µM): 51 (5.5) % of control
II-ADP, % of control (O2 consumption rate) ([9]; 4 µM): 12 (7.5) % of control
II-sub, % of control (O2 consumption rate) ([9]; 4 µM): 31 (5.7) % of control
I-ADP, % of control (O2 consumption rate) ([9]; 20 µM): 15 (5.7) % of control
I-sub, % of control (O2 consumption rate) ([9]; 20 µM): 54 (5.8) % of control
II-ADP, % of control (O2 consumption rate) ([9]; 20 µM): 9 (5.8) % of control
II-sub, % of control (O2 consumption rate) ([9]; 20 µM): 32 (6.0) % of control
I-ADP, % of control (O2 consumption rate) ([9]; 100 µM): 9 (4.8) % of control
I-sub, % of control (O2 consumption rate) ([9]; 100 µM): 26 (5.6) % of control
II-ADP, % of control (O2 consumption rate) ([9]; 100 µM): 7 (4.0) % of control
II-sub, % of control (O2 consumption rate) ([9]; 100 µM): 13 (4.6) % of control
Complex I % inhibition (activity call) [10]: Inactive
Complex IV % inhibition (activity call) [11]: Inactive
IC50 [12]: 2650 nM
Parkin recruitment [13]: Active
Parkin translocation into mitochondria (in words) ([13]; 3 h): significantly increased Parkin translocation into mitochondria
IC50 [14]: 2910 nM
EC50 [15]: 310 ± 40 nM
